Our source for the IC50 values is patent US20050197338A1, “Substituted pyrazole urea compounds for the treatment of inflammation” (priority 2003, published 2005).

For the experiment, the target named is T1, human IKK-2 (rhIKK-2 homodimer) (Homo sapiens, UniProt O14920).
T1 construct: FLAG (DYKDDDDKD) (C); made in house; host or cells: insect cells (baculovirus, pFastBac)
T1 sequence (O14920 1-756): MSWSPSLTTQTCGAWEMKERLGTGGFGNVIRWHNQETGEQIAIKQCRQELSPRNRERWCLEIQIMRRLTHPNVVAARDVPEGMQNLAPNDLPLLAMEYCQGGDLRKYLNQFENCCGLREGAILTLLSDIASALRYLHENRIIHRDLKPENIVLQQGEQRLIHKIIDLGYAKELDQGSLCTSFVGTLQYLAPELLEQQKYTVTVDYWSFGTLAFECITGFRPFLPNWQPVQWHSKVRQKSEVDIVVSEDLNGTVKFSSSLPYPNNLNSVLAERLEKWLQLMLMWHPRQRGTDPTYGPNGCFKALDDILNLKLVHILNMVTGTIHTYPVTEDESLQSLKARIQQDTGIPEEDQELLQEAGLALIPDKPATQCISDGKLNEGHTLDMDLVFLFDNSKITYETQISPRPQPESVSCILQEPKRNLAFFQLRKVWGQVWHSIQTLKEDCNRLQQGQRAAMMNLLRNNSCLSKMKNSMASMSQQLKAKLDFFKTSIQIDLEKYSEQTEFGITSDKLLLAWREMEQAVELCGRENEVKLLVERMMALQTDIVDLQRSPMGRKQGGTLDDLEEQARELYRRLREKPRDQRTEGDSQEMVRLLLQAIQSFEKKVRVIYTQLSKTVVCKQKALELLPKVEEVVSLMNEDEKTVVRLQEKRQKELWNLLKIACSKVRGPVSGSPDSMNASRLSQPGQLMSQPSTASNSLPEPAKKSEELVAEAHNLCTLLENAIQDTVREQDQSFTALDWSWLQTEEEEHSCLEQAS
The experiment in a line: IKK-2 Resin Enzyme Assay (Human IKK-2 Enzyme Assay). It counts as biochemical. As to conditions: human IKK-2, resin enzyme assay; read-out: IC50 (μM) hIKK-2. Put shortly:
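C-terminally FLAG-tagged human IKK-2 homodimer, baculovirus-expressed in insect cells and anti-FLAG purified. Reaction mix: 5 μM biotinylated IκBα peptide (Ser32/Ser36 region), 1 μM ATP with [γ-33P]ATP, 2 mM MgCl2, 2 mM MnCl2, 10 mM NaF, 1 mM DTT, 25 mM HEPES pH 7.6. Incubated 30 min at 25 °C; IC50 derived.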

Regarding `NC(=O)Nc1cn(-c2ccc(-c3ccc(C(=O)OCc4ccccc4F)c(F)c3)cc2)nc1C(N)=O` [Example 162, 2-fluorobenzyl 4′-{3-(aminocarbonyl)-4-[(aminocarbonyl)amino]-1H-pyrazol-1-yl}-3-fluoro-1,1′-biphenyl-4-carboxylate], the IC50 (as a rule, the concentration that inhibits the measured activity by half) is 13.7 µM.

As to `NC(=O)Nc1cn(-c2ccc(I)cc2)nc1C(N)=O` [Example 215, 4-[(aminocarbonyl)amino]-1-(4-iodophenyl)-1H-pyrazole-3-carboxamide], the IC50 came out at 0.322 µM.

For the molecule `NC(=O)Nc1cn(-c2cccc(-c3cc(F)ccc3O)c2)nc1C(N)=O` [Example 93, 4-[(aminocarbonyl)amino]-1-(5′-fluoro-2′-hydroxy-1,1′-biphenyl-3-yl)-1H-pyrazole-3-carboxamide], the concentration for half-maximal inhibition (IC50) amounted to 3.1 µM.

For the molecule `NC(=O)Nc1cn(-c2ccc(-c3cccc(O)c3)c(Cl)c2)nc1C(N)=O` [Example 7, 4-[(aminocarbonyl)amino]-1-(2-chloro-3′-hydroxy-1,1′-biphenyl-4-yl)-1H-pyrazole-3-carboxamide], the IC50 is 0.355 µM.

Consider `Cc1cc(-c2cccc(O)c2)ccc1-n1cc(NC(N)=O)c(C(N)=O)n1` [Example 5, 4-[(aminocarbonyl)amino]-1-(3′-hydroxy-3-methyl-1,1′-biphenyl-4-yl)-1H-pyrazole-3-carboxamide], for which the 50% inhibitory concentration (IC50) was 5.09 µM.

As to `CNC(=O)Nc1cn(-c2cccc(Br)c2)nc1C(N)=O` [Example 15, 1-(3-bromophenyl)-4-{[(methylamino)carbonyl]amino}-1H-pyrazole-3-carboxamide], the half-inhibitory concentration (IC50) worked out at 8.05 µM.

For `N#CCOc1ccc(F)cc1-c1ccc(-n2cc(NC(N)=O)c(C(N)=O)n2)cc1` [Example 172, 4-[(aminocarbonyl)amino]-1-[2′-(cyanomethoxy)-5′-fluoro-1,1′-biphenyl-4-yl]-1H-pyrazole-3-carboxamide], the IC50 is 0.044 µM.

Consider `NC(=O)Nc1cn(-c2ccc(S(=O)(=O)c3ccc(F)cc3)cc2)nc1C(N)=O` [Example 204, 1-(1-(4-(4-fluorophenylsulfonyl)phenyl)-3-carbamoyl-1H-pyrazol-4-yl)urea], for which the 50% inhibitory concentration (IC50) was found to be 0.013 µM.

As to `NC(=O)Nc1cn(-c2ccc(Br)cc2)nc1C(N)=O` [Example 19, 1-(1-(4-bromophenyl)-3-carbamoyl-1H-pyrazol-4-yl)urea], the IC50 was determined as 0.31 µM.

As for `NC(=O)Nc1cn(-c2ccc(-c3ccccc3)cc2)nc1C(N)=O` [Example 101, 4-[(aminocarbonyl)amino]-1-(1,1′-biphenyl-4-yl)-1H-pyrazole-3-carboxamide], the half-maximal inhibitory concentration (IC50) was 8.07 µM.

In the case of `Cc1cc(-n2cc(NC(N)=O)c(C(N)=O)n2)ccc1I` [Example 8, 1-(4-iodo-3-methyl-phenyl)-4-ureido-1H-pyrazole-3-carboxylic acid amide], the IC50 turned out to be 0.0676 µM.

`CCOc1cc(-n2cc(NC(N)=O)c(C(N)=O)n2)ccc1Br` [Example 3, 4-[(aminocarbonyl)amino]-1-(4-bromo-3-ethoxyphenyl)-1H-pyrazole-3-carboxamide]: the IC50 worked out at 1.35 µM.

`NC(=O)Nc1cn(-c2ccc(-c3ccc(C(=O)OCc4cccc(F)c4)c(F)c3)cc2)nc1C(N)=O` [Example 163, 3-fluorobenzyl 4′-{3-(aminocarbonyl)-4-[(aminocarbonyl)amino]-1H-pyrazol-1-yl}-3-fluoro-1,1′-biphenyl-4-carboxylate]: the IC50 is 16.6 µM.

`NC(=O)Nc1cn(-c2ccc(Br)c(F)c2)nc1C(N)=O` [Example 225, 4-[(aminocarbonyl)amino]-1-(4-bromo-3-fluorophenyl)-1H-pyrazole-3-carboxamide]: the half-maximal inhibitory concentration (IC50) was found to be 0.378 µM.

As for `CN(C)CCN(C)C(=O)c1ccc(-c2ccc(-n3cc(NC(N)=O)c(C(N)=O)n3)cc2)cc1F` [Example 160, 4-[(aminocarbonyl)amino]-1-(4′-{[[2-(dimethylamino)ethyl](methyl)amino]carbonyl}-3′-fluoro-1,1′-biphenyl-4-yl)-1H-pyrazole-3-carboxamide], the IC50 was 4.79 µM.

As for `COc1ccc(-n2cc(NC(N)=O)c(C(N)=O)n2)cc1Cl` [Example 209, 4-[(Aminocarbonyl)amino]-1-(3-chloro-4-methoxyphenyl)-1H-pyrazole-3-carboxamide], the IC50 came to 1.04 µM.

With `CNC(=O)Nc1cn(-c2ccc(Br)cc2)nc1C(N)=O` [Example 16, 1-(4-bromophenyl)-4-{[(methylamino)carbonyl]amino}-1H-pyrazole-3-carboxamide], the IC50 was 3.1 µM.

On to `N#Cc1ccc(-c2ccc(-n3cc(NC(N)=O)c(C(N)=O)n3)cc2)cc1` [Example 100, 4-[(aminocarbonyl)amino]-1-(4′-cyano-1,1′-biphenyl-4-yl)-1H-pyrazole-3-carboxamide], for which the IC50 was 1.15 µM.

Regarding `N#CCCc1cccc(-c2ccc(-n3cc(NC(N)=O)c(C(N)=O)n3)cc2)c1` [Example 186, 4-[(aminocarbonyl)amino]-1-[3′-(2-cyanoethyl)-1,1′-biphenyl-4-yl]-1H-pyrazole-3-carboxamide], the concentration for half-maximal inhibition (IC50) was 0.86 µM.

As to `NC(=O)Nc1cn(-c2ccc(-c3ccc(C(=O)O)c(F)c3)cc2)nc1C(N)=O` [Example 97, 4′-{3-(aminocarbonyl)-4-[(aminocarbonyl)amino]-1H-pyrazol-1-yl}-3-fluoro-1,1′-biphenyl-4-carboxylic acid], the IC50 is 0.14 µM.

For the molecule `NC(=O)Nc1cn(-c2ccc(S(=O)(=O)C3CCCCC3)cc2)nc1C(N)=O` [Example 192, 1-(3-carbamoyl-1-(4-(cyclohexylsulfonyl)phenyl)-1H-pyrazol-4-yl)urea], the half-inhibitory concentration (IC50) was 0.237 µM.

For `NC(=O)Nc1cn(-c2ccc(-c3cc4ccccc4[nH]3)cc2)nc1C(N)=O` [Example 141, 4-[(aminocarbonyl)amino]-1-[4-(1H-indol-2-yl)phenyl]-1H-pyrazole-3-carboxamide], the IC50 worked out at 11.4 µM.

As for `NC(=O)Nc1cn(-c2ccc(-c3ccc(-c4nnn[nH]4)cc3)cc2)nc1C(N)=O` [Example 187, 4-[(aminocarbonyl)amino]-1-[4′-(1H-tetrazol-5-yl)-1,1′-biphenyl-4-yl]-1H-pyrazole-3-carboxamide], the half-maximal inhibitory concentration (IC50) was 0.821 µM.

Consider `NC(=O)Nc1cn(-c2ccc(-c3ccc(C(=O)OCc4ccc(F)cc4)c(F)c3)cc2)nc1C(N)=O` [Example 164, 4-fluorobenzyl 4′-{3-(aminocarbonyl)-4-[(aminocarbonyl)amino]-1H-pyrazol-1-yl}-3-fluoro-1,1′-biphenyl-4-carboxylate], for which the IC50 came out at 11.3 µM.

Take `N#CCOc1ccc(F)cc1-c1cccc(-n2cc(NC(N)=O)c(C(N)=O)n2)c1` [Example 94, 4-[(aminocarbonyl)amino]-1-[2′-(cyanomethoxy)-5′-fluoro-1,1′-biphenyl-3-yl]-1H-pyrazole-3-carboxamide]: the IC50 is 0.22 µM.

For the molecule `NC(=O)Nc1cn(-c2cccc(-c3ccc(F)cc3O)c2)nc1C(N)=O` [Example 92, 4-[(aminocarbonyl)amino]-1-(4′-fluoro-2′-hydroxy-1,1′-biphenyl-3-yl)-1H-pyrazole-3-carboxamide], the IC50 was found to be 6.61 µM.

As to `NC(=O)Nc1cn(-c2ccc(Sc3ccccn3)cc2)nc1C(N)=O` [Example 205, 1-(3-carbamoyl-1-(4-(pyridin-2-ylthio)phenyl)-1H-pyrazol-4-yl)urea], the half-maximal inhibitory concentration (IC50) stood at 1.13 µM.

Regarding `NC(=O)Nc1cn(-c2ccc(-c3cc(F)ccc3O)cc2)nc1C(N)=O` [Example 99, 4-[(aminocarbonyl)amino]-1-(5′-fluoro-2′-hydroxy-1,1′-biphenyl-4-yl)-1H-pyrazole-3-carboxamide], the IC50 was determined as 0.75 µM.

Take `NC(=O)Nc1cn(-c2ccc(Br)c(C(F)(F)F)c2)nc1C(N)=O` [Example 1, 4-[(aminocarbonyl)amino]-1-[4-bromo-3-(trifluoromethyl)phenyl]-1H-pyrazole-3-carboxamide]: the IC50 was 0.307 µM.

`Cc1cc(I)ccc1-n1cc(NC(N)=O)c(C(N)=O)n1` [Example 4, 1-(4-iodo-2-methyl-phenyl)-4-ureido-1H-pyrazole-3-carboxylic acid amide]: the half-inhibitory concentration (IC50) was 2.87 µM.

With `CC(C)(C)OC(=O)COc1cccc(-c2ccc(-n3cc(NC(N)=O)c(C(N)=O)n3)cc2)c1` [Example 174, tert-butyl [(4′-{3-(aminocarbonyl)-4-[(aminocarbonyl)amino]-1H-pyrazol-1-yl}-1,1′-biphenyl-3-yl)oxy]acetate], the concentration for half-maximal inhibition (IC50) worked out at 3.67 µM.

Regarding `NC(=O)Nc1cn(-c2ccc(S(=O)(=O)c3ccccc3F)cc2)nc1C(N)=O` [Example 194, 1-(1-(4-(2-fluorophenylsulfonyl)phenyl)-3-carbamoyl-1H-pyrazol-4-yl)urea], the IC50 was determined as 0.15 µM.

Consider `NC(=O)Nc1cn(-c2ccc(-c3ccc(F)cc3O)cc2)nc1C(N)=O` [Example 98, 4-[(aminocarbonyl)amino]-1-(4′-fluoro-2′-hydroxy-1,1′-biphenyl-4-yl)-1H-pyrazole-3-carboxamide], for which the IC50 was found to be 1.04 µM.
